Measured values published in patent US11427588B2, “Compositions and methods for treating neurodegenerative diseases and cardiomyopathy” (THE REGENTS OF THE UNIVERSITY OF CALIFORNIA, priority 2013, dated 2022).

Tests used:
[1] = test system: SH-SY5Y cells with PINK1-silencing shRNA; experiment: H2O2 induced apoptosis, Annexin V / PI FACS assay, PINK1-silencing shRNA; type: cell-based, human; conditions: PINK1-silencing shRNA lentivirus; 50 μM 96 hours, 400 μM H2O2
Description: Apoptosis assays and PINK1 shRNA: SH-SY5Y cells (ATCC) were cultured in 1:1 mix of F12K and DMEM supplemented with 20% FBS. PINK1 shRNA lentivirus were produced using a pLKO.1 based shRNA (Sigma) by contransfection with Δ8.9 and pMGD2 vectors in HEK293T cells. SH-SY5Y cells were infected with lentivirus followed by selection with puromycin ([…]). The indicated cells were plated in 6-well plates at about 500,000 cells/well, pretreated with 50 μM of the indicated drug or DMSO for 96 hours followed by 400 μM H2O2 treatment. Subsequently, cells were stained with Annexin V-FITC and PI and analyzed (FACS Diva) on a FACS LSRII Cytometer ([…]) Apoptosis was calculated as the difference between H2O2 treated samples and the respective control.
Overexpression of PINK1 in neuronal cells (e.g. dopaminergic (DA)) promotes survival in response to oxidative stress and other mitochondrial toxins^7. Before testing the effects of kinetin on apoptosis, we treated DA neurons with 50 μM of either kinetin or adenine and measured cell density after 10 days. […] SH-SY5Y cells were treated with 50 μM kinetin, adenine or DMSO for 96 hours, followed by 400 μM H2O2 treatment for additional 24 hours. Using a cytometry-based FACS assay involving cellular annexin V and propidium iodide staining, we determined the percentage of apoptotic cells after treatment with DMSO, adenine or kinetin.

HeLa cells = experiment: Parkin recruitment to depolarized mitochondria in HeLa cells, PINK1 form not stated; type: cell-based
Description: Parkin phosphorylation and mitochondrial translocation assay: HeLa cells were grown in DMEM supplemented with 10% FBS. Log phase cells were plated in 24 well plates with glass coverslips (Mattek) pretreated with fibronectin. Cells were pretreated with 50 μM of the indicated compound, followed by transfection with MitoGFP, mCherry Parkin, and full length PINK1FLAG3 in a 1:4:2 ratio using Fugene 6 (Promega). Fields of cells were selected by expression of MitoGFP (6 fields/well-3 wells/condition) and imaged at five-minute intervals following depolarization with 5 μM CCCP. Quantification was performed according to published protocols^3 and by creation of a Matlab based script.
Our ability to enhance PINK1 activity in-vitro using KTP led us to investigate means by which to achieve enhanced activity in cells expressing PINK1. […] We treated cells with either kinetin or adenine (FIG. 2A) and measured Parkin localization following mitochondrial depolarization with CCCP (FIG. 2B). HeLa cells, which have low levels of endogenous PINK1 and PARKIN, were transfected with wildtype or PINK1^G309D, mCherryParkin, and mitoGFP. After 48 hours of incubation with 25 μM adenine, kinetin or equivalent DMSO, we imaged CCCP-mediated depolarization of mitochondria (FIGS. 2C, 2D) and calculated the percentage of GFP labelled mitochondria with mCherryParkin associated (FIG. 2E). […]

PINK1wt mice = experiment: Heart health and performance in mice treated from birth; type: in vivo
Description: PINK1 expression is protective in several mouse models of heart failure. PINK1wt expression will block pathological hypertrophy, increase heart fractional shortening, and prevent ischemia induced death of heart tissue. To assay the effect of kinetin PINK1 wt or PINK1−/− mice were treated with vehicle, adenine or kinetin from birth following published protocols for administration of kinetin (Hims et al., 2007; Shetty et al., 2011). The mice were sacrificed and whole hearts analyzed, and isolated cardiomyocytes from mice at appropriate time periods (e.g. 2 and 6 months). O2 consumption, mitochondrial integrity (mtDNA abundance, mitochondrial capacity and JC-1 fluorescence) caspase 3/7 cleavage activity and TUNEL staining were measured to assess the health of these tissues. According to published results (Billia et al., 2011; Chen and Dorn, 2013), PINK1 activity is essential for normal 02 consumption and maintenance of mitochondrial integrity. Decreased 02 consumption and mitochondrial integrity in PINK1−/− mice was compared to PINK1wt mice. […] Additionally, caspase 3/7 cleavage activity and TUNEL staining of the left ventricle were increased in PINK1−/− mice derived cardiomyocytes compared to PINK1wt.
In addition to these analyses we analyzed the performance of the heart in whole animals. We utilized the same procedure as above and treated either PINK1wt or PINK1−/− mice with vehicle, adenine or kinetin from birth following published protocols for administration of kinetin (Hims et al., 2007; Shetty et al., 2011). […] These characteristics of pathological hypertrophy indicate heart failure in the PINK1−/− mice will not increase as dramatically in PINK1wt mice (Billia et al., 2011). […] These experiments indicate that amplification of PINK1 activity by treatment with kinetin can block age-induced loss in heart function.

c1coc(CNc2ncnc3[nH]cnc23)c1 [kinetin]
total amount of apoptotic cells [1]: no kinetin effect
Parkin recruitment to CCCP depolarized mitochondria (HeLa cells): accelerates
age induced pathological hypertrophy (PINK1wt mice; HBW ratio, cross sectional area, extracellular matrix): reduces this age induced pathological hypertrophy
fractional shortening (PINK1wt mice; six month old, echocardiography): still higher fractional shortening
O2 consumption and mitochondrial integrity (PINK1wt mice; treated from birth): Improved values
TUNEL staining of the left ventricle (PINK1wt mice; treated from birth): further reduced TUNEL staining
